# Measurements from US8354430B2, “Monohydrochloride salt of 1-[3-[3-(4-chlorophenyl) propoxy]propyl]-piperidine” (priority 2005, dated 2013).
# “And” between values parts separate entries of the source, which are not always exact repeats. Equal entries are not always repeated. “Also recorded” adds a separate entry of the source.
# Tests used:
# epileptic patients = assay: Photo paroxysmal response (PPR) to intermittent photic stimulation in photosensitive epileptic patients, single-blind single dose; type: in vivo, human; details: for Delay of apparition / Duration of effect / Suppression of PPR: individual patients
# Text: Acta Neurol. […] Unlike most other epilepsies, photosensitive epilepsy is a reflex epilepsy and epileptiform discharges can be evoked at any time by IPS in the laboratory. By determination of both upper and lower sensitivity limits (frequencies per flash) a so-called photosensitivity range can be determined. The range is related to liability of seizures in daily life of the patient. This photosensitivity range is relatively stable within a patient and can be diminished or abolished by antiepileptic medication. […] Twelve patients have been enrolled. Four patients received the dose of 20 mg. […] Four patients received the dose of 40 mg.
# Human H1R = Human H1R (Homo sapiens, UniProt P35367); assay: Histamine-induced increase in [35S]GTPγS binding; type: biochemical; details: read-out: Ki or IC50, [35S]GTPγS
# [1] = 13-week repeat oral dose study in rats; details: rat, in vivo, read-out: NOAEL (no observed adverse effect level)
# [2] = 13-week repeat oral dose study in monkeys; details: monkey, in vivo
# Text: This dose was defined as the NOAEL in monkeys.
# H2R = H2R (Cavia porcellus, UniProt P47747); assay: [125I]iodoaminopotentidine binding assay to the guinea pig H2 receptor; details: read-out: Ki or IC50, H2R
# human H3R [3] = biological target: T1, human H3R (Homo sapiens, UniProt Q9Y5N1); assay: A23187-evoked [3H]arachidonic acid release from CHO cells expressing human H3R; type: cell-based; set-up: expressed in transfected cells; host or cells: CHO cells; details: 1 μM, human H3R 300-400 fmol/mg protein
# mice [4] = assay: Sleep-wake cycle study in mice (EEG/EMG); type: in vivo, mouse
# Procedure: Animals were chronically implanted with cortical and muscle electrodes to record EEG and EMG respectively, to allow monitoring their sleep-wake cycle. After recovery from surgery, animals were housed individually in a sound-proof recorded room maintaining at appropriate ambient temperature on a 12 h light/dark cycle. Polygraphic recordings were performed during 4 days to collect reference qualitative and quantitative data of sleep-wake control in each individual. Then, pharmacological evaluation was performed over 24 h sessions and analyzed by successive 30 sec epochs. Wakefulness and sleep states were identified as previously described for cats [Petitjean et al., Brain Res., 1975, 88: 439-53] and mice [Valatx and Bugat, Brain Res., 1974, 69: 315-30].
# Polygraphic recordings were started 15 days after surgery (5 days recovery plus 10 days acclimation to the recording wires). Sleep-wake recording criteria included wakefulness (W), slow wave sleep (SWS) and paradoxical sleep (PS). Spectral analysis of EEG was performed by Fast-Fourier Transform in the 0.8-2.5 Hz, 8-15 Hz and 30-60 Hz frequency bands.
# Human H4R = Human H4R (Homo sapiens, UniProt Q9H3N8); assay: [3H]histamine binding assay; details: read-out: Ki or IC50, Human H4R
# [5] = Stability to oxidation conditions (melting points under nitrogen and oxygen atmosphere); type: physicochemical
# Procedure: Melting points of the above salts were also determined under nitrogen and oxygen atmosphere, in order to verify their stability to oxidation conditions.
# mice [6] = assay: Electroshock in mice (maximal electroshock seizure model); type: in vivo, mouse; details: 100 mg/kg, p.o.; test 60 min after dosing
# human H3R [7] = biological target: T1, human H3R; assay: [35S]GTPγS specific binding to membranes of CHO cells expressing the human H3R; type: biochemical; set-up: expressed in transfected cells; host or cells: CHO cells
# Mouse Brain native H3R = biological target: T2, Mouse Brain native H3R (Mus musculus, UniProt P58406); assay: Histamine H3 receptor binding, mouse brain cortex membranes
# T2 construct: was performed on mouse brain cortex membranes; from tissue; host or cells: mouse brain cortex membranes
# volunteers = assay: Single ascending dose EEG, psychometric and vigilance study in volunteers; type: in vivo, human
# Procedure: A single-center, double-blind, randomized, placebo-controlled, single ascending doses, electroencephalographic study was performed in 36 volunteers. Subjects were consecutively enrolled in groups 1 to 6 (1, 5, 10, 20, 40 or 60 mg). All subjects of each dose group were randomly assigned to receive either 1-[3-[3-(4-chlorophenyl) propoxy]propyl]-piperidine monohydrochloride or placebo, in such a way that 5 subjects received the product and one subject received placebo.
# From the EEG spectral analysis performed before treatment, the study subjects could be stratified as microvolted (66%) and normo or grandvolted (33%). The distribution between those subjects with 30-40% slow activity and 20-25% rapid activity (microvolted), and those with 10% slow activity (normovolted) or 60-80% of [alpha]-activity (grandvolted), explains that before drug administration significant differences were elicited for 20-30 Hz and 30-40 Hz activities.
# GAERS rats = assay: Absence epilepsy in GAERS rat; type: in vivo
# Text: A strain of Wistar rats with spontaneously generalized non convulsive seizures (absence seizures) has been developed in Strasbourg (Genetic Absence Epilepsy Rats of Strasbourg or GAERS). Seizures are characterized by bilateral and synchronous spike-and-wave discharges (7-9 Hz) on EEG, concomitant with behavioral arrests. These discharges generally last about 20 sec and occur spontaneously every minute when the animals are in a state of quiet wakefulness. Pharmacological reactivity of this model is similar to human absence-epilepsy (e.g., valproate and ethosuccimide are protective). After a recovery period, implanted rats (cortical and hippocampal EEG electrodes) were recorded over a 20 min reference period. […] Rats received the alternative treatment one week later. Cumulated duration of absence-seizures was measured by 20 min periods during the two sessions. Fast Fourier transform analysis of EEG recording allowed detection of any rhythm change during both ictal and inter-ictal periods (background activity).
# [8] = 40 mg single dose, monohydrochloride
# [9] = 60 mg single dose, monohydrochloride
# [10] = two hours after single oral 40 mg and 60 mg
# T1 sequence (Q9Y5N1 whole entry): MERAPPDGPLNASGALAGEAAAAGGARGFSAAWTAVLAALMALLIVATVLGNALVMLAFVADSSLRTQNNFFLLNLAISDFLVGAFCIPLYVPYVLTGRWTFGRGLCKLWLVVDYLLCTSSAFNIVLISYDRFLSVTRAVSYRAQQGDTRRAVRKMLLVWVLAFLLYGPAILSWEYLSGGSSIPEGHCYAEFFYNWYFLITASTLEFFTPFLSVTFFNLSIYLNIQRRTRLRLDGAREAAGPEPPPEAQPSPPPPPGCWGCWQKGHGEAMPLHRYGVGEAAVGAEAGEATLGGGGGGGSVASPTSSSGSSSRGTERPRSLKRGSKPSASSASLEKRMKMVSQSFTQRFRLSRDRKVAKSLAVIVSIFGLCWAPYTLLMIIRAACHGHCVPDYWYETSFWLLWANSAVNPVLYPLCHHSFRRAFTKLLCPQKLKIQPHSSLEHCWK
# T2 sequence (P58406 whole entry): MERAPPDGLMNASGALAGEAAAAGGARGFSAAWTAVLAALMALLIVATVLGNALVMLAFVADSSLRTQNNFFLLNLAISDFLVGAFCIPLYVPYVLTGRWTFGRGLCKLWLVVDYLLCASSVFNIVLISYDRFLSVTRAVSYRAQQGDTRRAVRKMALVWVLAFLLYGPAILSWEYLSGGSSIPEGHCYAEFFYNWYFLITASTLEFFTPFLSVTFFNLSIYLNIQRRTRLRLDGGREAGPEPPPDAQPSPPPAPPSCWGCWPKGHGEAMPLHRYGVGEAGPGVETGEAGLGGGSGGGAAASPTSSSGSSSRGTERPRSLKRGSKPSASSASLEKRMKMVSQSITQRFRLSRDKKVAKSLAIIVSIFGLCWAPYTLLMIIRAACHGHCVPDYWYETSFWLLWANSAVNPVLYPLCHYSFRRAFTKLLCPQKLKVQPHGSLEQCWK
# Chain of Human H1R (P35367 whole entry): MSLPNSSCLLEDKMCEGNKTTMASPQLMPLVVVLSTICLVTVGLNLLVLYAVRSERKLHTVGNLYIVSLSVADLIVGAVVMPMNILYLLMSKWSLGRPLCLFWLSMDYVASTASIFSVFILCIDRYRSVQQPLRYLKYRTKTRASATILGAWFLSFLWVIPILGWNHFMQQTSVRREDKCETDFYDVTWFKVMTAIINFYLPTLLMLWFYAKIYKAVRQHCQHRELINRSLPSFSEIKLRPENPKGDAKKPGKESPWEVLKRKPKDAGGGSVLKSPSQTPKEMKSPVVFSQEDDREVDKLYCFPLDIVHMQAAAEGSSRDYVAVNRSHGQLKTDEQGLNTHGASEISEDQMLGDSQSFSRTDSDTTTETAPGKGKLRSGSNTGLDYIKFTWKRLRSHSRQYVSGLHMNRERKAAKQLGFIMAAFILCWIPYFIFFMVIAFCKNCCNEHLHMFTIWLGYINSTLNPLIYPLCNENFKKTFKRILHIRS
# Chain of H2R (P47747 whole entry): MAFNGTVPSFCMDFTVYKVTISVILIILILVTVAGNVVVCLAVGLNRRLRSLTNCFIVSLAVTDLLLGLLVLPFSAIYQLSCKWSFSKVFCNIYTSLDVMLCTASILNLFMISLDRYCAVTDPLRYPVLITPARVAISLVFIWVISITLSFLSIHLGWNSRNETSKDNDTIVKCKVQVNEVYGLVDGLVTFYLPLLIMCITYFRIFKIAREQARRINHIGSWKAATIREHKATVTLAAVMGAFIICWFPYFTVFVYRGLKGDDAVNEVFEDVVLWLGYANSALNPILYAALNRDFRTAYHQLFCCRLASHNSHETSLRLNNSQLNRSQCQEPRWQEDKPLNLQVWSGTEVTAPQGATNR
# Chain of Human H4R (Q9H3N8 whole entry): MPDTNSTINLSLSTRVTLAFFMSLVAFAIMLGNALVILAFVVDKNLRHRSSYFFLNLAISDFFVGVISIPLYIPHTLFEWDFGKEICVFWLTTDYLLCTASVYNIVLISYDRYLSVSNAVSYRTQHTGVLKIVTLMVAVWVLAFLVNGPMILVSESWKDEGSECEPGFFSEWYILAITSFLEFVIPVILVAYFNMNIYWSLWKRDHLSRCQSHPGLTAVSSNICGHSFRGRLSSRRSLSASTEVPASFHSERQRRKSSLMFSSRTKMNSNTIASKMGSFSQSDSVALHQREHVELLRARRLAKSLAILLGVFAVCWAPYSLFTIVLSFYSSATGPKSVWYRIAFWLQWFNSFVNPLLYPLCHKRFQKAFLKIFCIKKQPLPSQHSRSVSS
smiles,measurement,setting,value
Cl.Clc1ccc(CCCOCCCN2CCCCC2)cc1 [1-[3-[3-(4-chlorophenyl)propoxy]propyl]-piperidine monohydrochloride],Delay of apparition,epileptic patients; 20 mg single dose,2 h
same,Duration of effect,epileptic patients; 20 mg single dose,6 h
same,Suppression of PPR,"epileptic patients; 20 mg single dose, monohydrochloride",No (3×) and Total
same,Delay of apparition,epileptic patients; [8],<1 hour hours and 2 hours
same,Duration of effect,epileptic patients; [8],>8 h and 26 h
same,Suppression of PPR,epileptic patients; [8],No (2×) and Total and Partial
same,Delay of apparition,epileptic patients; [9],2 hours and <1 hour hours (3×)
same,Duration of effect,epileptic patients; [9],>8 hours (2×) and >36 hours and 26 hours
same,Suppression of PPR,epileptic patients; [9],Partial; also recorded: Total
same,clinical response,"epileptic patients; 60 mg, four patients",clinical response in all four patients
same,appearance of effect post administration,"epileptic patients; 20-60 mg, overall",1 to 2 h
same,IC50,Human H1R,> 10000 nM
same,NOAEL at 13 weeks,[1],30 mg/kg/day
same,NOAEL at 13 weeks,[2],5 mg/kg/day
same,Ki,H2R,~5000 nM
same,reduction of the A23187-evoked [3H]AA release,human H3R [3],20%
same,increase in W duration,mice [4]; 10 mg/kg oral,29%
same,increase in W duration,mice [4]; 20 mg/kg oral,69%
same,behavioral change in treated mice,mice [4]; oral,No behavioral change
same,awakening (W) at the expense of SWS and PS,"mice [4]; oral, 2.5, 5, 10 or 20 mg/kg",dose-dependent increase in awakening
same,Ki,Human H4R,> 100000 nM
same,"Melting point, N2 atmosphere (stability to oxidation conditions)",[5]; N2 atmosphere,117.68 °C
same,"Melting point, O2 atmosphere (stability to oxidation conditions)",[5]; O2 atmosphere,117.54 °C
same,stability to oxidation conditions,[5]; melting points under nitrogen vs oxygen atmosphere,better profile of stability to oxidation conditions than other salts
same,protection in the maximal electroshock seizure model,mice [6],complete protection
same,decrease in [35S]GTPγS specific binding,"human H3R [7]; 10 nM, receptor level 1000-1100 fmol/mg protein",22%
same,maximal decrease of specific binding of [35S]GTPγS,human H3R [7]; receptor level 410 fmol/mg protein,25%
same,solubility,"physchem; pH 4.5, aqueous buffer",> 1000 mg/mL
same,solubility,"physchem; pH 7.4, aqueous buffer",> 1000 mg/mL
same,solubility,physchem; water,> 1000 mg/mL
same,Ki,Mouse Brain native H3R; radioligand [3H](R)α-MeHA,5.7 ± 0.2 nM
same,Ki,Mouse Brain native H3R; radioligand [125I]iodoproxyfan,14 ± 0.1 nM
same,"flicker, fusion and flicker-fusion thresholds (CFF) vs placebo",volunteers; single 60 mg,higher
same,ARCI 49,volunteers; single doses 1-60 mg,no trend or statistically significant drug effect
same,"self-perception of sleep (LEEDS), alertness, contentedness and calmness (Bond-Lader VAS), choice reaction time (CRT)",volunteers; single doses 1-60 mg,no statistically significant drug effect
same,"EEG rapid activity (20-30 Hz anterior leads, 16 to 40 Hz posterior leads)",volunteers; [10],statistically significant increase of rapid activity
same,median peak position (MPP) on the frequency axis,volunteers; [10],from 10 to 15-17 Hz and from 11 to 13-15 Hz
same,reduction of cumulated duration of spike-and-wave discharges vs. saline,"GAERS rats; 5 mg/kg, i.p.",25%
same,reduction of cumulated duration of spike-and-wave discharges vs. saline,"GAERS rats; 20 mg/kg, i.p.",77%
same,number and cumulated durations of spike and wave discharges,"GAERS rats; 20 mg/kg, i.p., 20, 40 and 60 min after administration",significantly decreased
same,EEG background activity (spectral analysis of inter-ictal periods),GAERS rats; epilepsy models,not associated with significant change in EEG background activity
